The source of these data is patent US10858340B2, “Crystal of salt of quinazoline derivative” (CHIA TAI TIANQING PHARMACEUTICAL GROUP CO., LTD., priority 2016, dated 2020).

Data set [1] can be described thus: Stability test of crystal: accelerated test. It counts as physicochemical. The note with it: 40° C. ± 2° C., relative humidity of 75% ± 5%. Here is the method:
(§1) The XRPD was measured using a PHASER BRUKER D2 X-ray powder diffractometer with a wavelength of 1.54060 Å. The melting point was measured using an YRT-3 melting point apparatus (manufactured by Tianjin University). The content was determined by HPLC with reference to Chinese Pharmacopoeia, 2010 edition, Part II, Appendix V D, using octadecylsilane bonded silica gel as a filler, and ammonium formate buffer solution and acetonitrile as a mobile phase; detection wavelength of 260 nm and column temperature of 40° C. The moisture content was determined using a METTLER TOLEDO DL31 Karl Fischer moisture analyzer.
(§2) The conditions and methods for the stability test of crystal were performed according to the requirements of the Chinese Pharmacopoeia (2010 edition), Part II, Appendix XIX C, Guidelines for Stability Tests of Active Pharmaceutical Ingredients and Pharmaceutical Preparations. The crystalline Form A prepared in Example 1 was used as a test sample. A medicinal low-density polyethylene bag was used as an inner package for a sample, and polyester/aluminum/polyethylene composite bag for pharmaceutical packaging was used as an outer packaging material for a sample.

The nature of data set [2]: Stability test of crystal: long-term test. The note with it: 25° C. ± 2° C., relative humidity of 60% ± 10%. It is filed as physicochemical. The procedure:
as §1, §2

As for `C=CC(=O)N1CCC(Nc2cc3c(Nc4ccc(F)c(Cl)c4)ncnc3cc2OC)CC1`, the “Content of the crystalline Form A of the maleate of the compound of Formula (I) (HPLC)” value in data set [1] (0 month) is 99.4%; in data set [1] (1 month), 99.3%; in data set [1] (2 months), 99.2%; in data set [1] (3 months) it was 99.2%; in data set [1] (6 months), 99.3%; in data set [2] (0 month), 99.4%. Moreover, the “Content of the crystalline Form A of the maleate of the compound of Formula (I) (HPLC)” value was determined as 99.3% in data set [2] (3 months); 99.4% in data set [2] (6 months); 99.2% in data set [2] (9 months); 99.4% in data set [2] (12 months); 99.2% in data set [2] (18 months). Further, the Moisture is 0.17% in data set [1] (0 month); 0.19% in data set [1] (1 month); 0.18% in data set [1] (2 months); 0.19% in data set [1] (3 months); 0.20% in data set [1] (6 months); 0.17% in data set [2] (0 month). The Moisture in data set [2] (3 months) amounted to 0.19%; in data set [2] (6 months), 0.20%; in data set [2] (9 months), 0.21%; in data set [2] (12 months), 0.22%; in data set [2] (18 months), 0.24%.
